Values of other authors, collected in patent US8871812B2, “Therapeutic regimen comprising PEG-interferon, ribavirin and VX-950 for the treatment of hepatitis” (priority 2008, dated 2014).

System: HCV
Conditions: monotherapy; cited from earlier work

interferon alfa
cases with long term remission: ~25%
